One assay relates to S. aureus ATCC13709. The experiment in a line: In vitro antibacterial activity (MIC assay), broth microdilution. The assay is classed as cell-based. The conditions noted are these: Staphylococcus aureus, ATCC13709; read-out: S. aureus ATCC13709 MIC. On the procedure:
(§1) Minimal inhibitory concentration (MIC) has been an indicator of in vitro antibacterial activity widely used in the art. The in vitro antibacterial activity of the compounds was determined by the broth microdilution method described by the National Committee for Clinical Laboratory Standards (NCCLS) in the NCCLS Document M7-A5, Vol. 20, No. 2, “Methods for Dilution Antimicrobial Susceptibility Test for Bacteria that Grow Aerobically—Fifth Edition”, which is incorporated herein by reference.
(§2) In this method, an aliquot of test compound from an 11-point series of 2-fold serial dilutions of compounds in 100% DMSO was added to wells in microdilution plates. The test organisms were prepared by adjusting the turbidity of actively growing broth cultures so that the final concentration of test organism after addition to wells with or without compounds was approximately 5×10^5 CFU/mL.
(§3) Following inoculation of the microdilution plates, the plates were incubated at 35° C. for 16-24 h and then scored for bacterial growth. […] The amount of growth in the wells containing the test compound was compared with the amount of growth in the growth-control wells (no test compound used) in each plate, and with the amount of growth in the wells containing control compounds (such as ciprofloxacin). Compounds of the present invention were tested against several bacterial strains. The MIC values (in μg/mL) are presented in Table 1 for Gram-negative (E. coli KL-16 (GSC strain 4245); data marked as (*) was obtained with E. coli ATCC25922) and Gram-positive bacteria (S. aureus ATCC13709; S. pneumoniae ATCC49619).

The subject of assay [1] is E. coli KL-16 (GSC strain 4245). The description is as above. The conditions noted are these: Escherichia coli. It counts as cell-based. On the procedure:
as §1, §2, §3

The subject of a further assay is S. pneumoniae ATCC49619. Described as above. It counts as cell-based. The conditions noted are these: Streptococcus pneumoniae, ATCC49619; read-out: S. pneumoniae ATCC49619 MIC. On the procedure:
as §1, §2, §3

The next assay has as its target T1, E. coli DNA gyrase (Escherichia coli, UniProt P0AES4+P0AES6).
T1 construct: purchased John Innes Enterprises Ltd. (John Innes Centre, UK)
As to the kind of experiment: DNA gyrase inhibition assay (supercoiling). The assay is classed as biochemical. Particulars: E. coli DNA gyrase supercoiling, visual inspection of gels; read-out: DNA Gyrase IC50 (converted). On the procedure:
Inhibition of the supercoiling activity of E. coli DNA gyrase was determined using enzymes, buffers and substrates received from John Innes Enterprises Ltd. (John Innes Centre, UK). The reactions were performed according to the manufacturer's directions, with the following modifications.
DNA supercoiling reactions were carried out in a total reaction volume of 20 μL containing 250 ng of relaxed pBR322, 35 mM Tris-HCl (pH 7.5), 24 mM KCl, 4 mM MgCl2, 2 mM dithiothreitol, 1.8 mM spermidine, 1 mM ATP, 6.5% glycerol and 100 μg/mL albumin. Compounds diluted in 10% DMSO were added to the reaction mixture to reach a final concentration of 0.5% DMSO. Enzyme was diluted to […] in a solution of 50 mM Tris-HCl (pH 7.5), 100 mM KCl, 2 mM dithiothreitol, 1 mM EDTA, and 50% glycerol. Diluted enzyme (0.2 unit) was added to each reaction.
The reactions were incubated at 37° C. for 30 min. The reactions were then cooled to 0° C., followed by addition of 3 μL of 40% glycerol, 100 mM Tris-HCl (pH 7.5), 50 mM EDTA, 0.5% SDS and 0.1% bromophenol blue. Samples were separated on 1.0% agarose gels. Gels were stained with Ethidium bromide and photographed with a Stratagene Eagle Eye II.

SMILES strings stand for the structures. ≈ marks a conversion by molar mass, not a printed value. Where only a bound is given, the exact number is not on record here.

T1 sequence (P0AES4 whole entry, one chain of several): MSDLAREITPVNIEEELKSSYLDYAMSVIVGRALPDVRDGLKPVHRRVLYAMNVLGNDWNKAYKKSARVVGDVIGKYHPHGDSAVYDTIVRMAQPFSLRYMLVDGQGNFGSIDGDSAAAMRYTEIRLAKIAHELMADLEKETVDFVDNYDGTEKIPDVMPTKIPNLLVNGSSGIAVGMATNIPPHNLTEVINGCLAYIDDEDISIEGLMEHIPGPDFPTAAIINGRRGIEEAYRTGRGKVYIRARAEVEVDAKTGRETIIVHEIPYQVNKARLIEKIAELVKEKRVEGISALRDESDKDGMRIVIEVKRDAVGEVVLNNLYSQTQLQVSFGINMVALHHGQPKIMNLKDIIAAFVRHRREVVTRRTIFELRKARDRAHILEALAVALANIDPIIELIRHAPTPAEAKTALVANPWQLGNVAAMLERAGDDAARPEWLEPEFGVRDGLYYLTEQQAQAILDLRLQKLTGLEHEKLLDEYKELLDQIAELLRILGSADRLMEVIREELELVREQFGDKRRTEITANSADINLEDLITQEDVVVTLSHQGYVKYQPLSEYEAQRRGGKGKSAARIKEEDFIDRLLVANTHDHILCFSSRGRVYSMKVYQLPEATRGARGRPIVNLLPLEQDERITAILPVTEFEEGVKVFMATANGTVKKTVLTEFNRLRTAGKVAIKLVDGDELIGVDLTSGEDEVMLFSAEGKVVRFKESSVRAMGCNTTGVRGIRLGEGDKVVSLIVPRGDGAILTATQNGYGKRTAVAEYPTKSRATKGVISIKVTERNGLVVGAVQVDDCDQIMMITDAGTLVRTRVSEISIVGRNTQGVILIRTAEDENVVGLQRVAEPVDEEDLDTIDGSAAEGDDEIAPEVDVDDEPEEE

In general, MIC refers to the least concentration at which growth counts as inhibited. As a reminder, the IC50 is the midpoint of a concentration-inhibition curve. For `COc1ccc2nccc(-n3cc4c(n3)CCC(NC(=O)c3cc5c(cc3Cl)SCC(=O)N5)C4)c2n1` (centres unmarked) [Example 6, 7-Chloro-3-oxo-3,4-dihydro-2H-benzo[1,4]thiazine-6-carboxylic acid [2-(6-methoxy-[1,5]naphthyridin-4-yl)-4,5,6,7-tetrahydro-2H-indazol-5-yl]-amide], the figures for the MIC (with S. aureus ATCC13709; in assay [1]; in the assay with S. pneumoniae ATCC49619) were less than 0.125 µg/mL, 2 µg/mL (≈ 3.84 µM) and 4 µg/mL (≈ 7.68 µM), respectively. Moreover, the IC50 on E. coli DNA gyrase was 0.23 µM.
In the same order, the values of `COc1ccc2nccc(-n3cc4c(n3)CCC(NC(=O)c3cc5c(F)cc(F)cc5[nH]3)C4)c2n1` (centres unmarked) [Example 7, 4,6-Difluoro-1H-indole-2-carboxylic acid [2-(6-methoxyl-[1,5]naphthyridin-4-yl)-4,5,6,7-tetrahydro-2H-indazol-5-yl]-amide] are 0.25 µg/mL (≈ 0.527 µM), more than 128 µg/mL, more than 128 µg/mL and 4.22 µM.
In the same order, the values of `COc1ccc2nccc(-n3cc4c(n3)CCC(NC(=O)c3nc5ccccc5[nH]3)C4)c2n1` (centres unmarked) [Example 8, 1H-Benzoimidazole-2-carboxylic acid [2-(6-methoxy-[1,5]naphthyridin-4-yl)-4,5,6,7-tetrahydro-2H-indazol-5-yl]-amide] are 0.25 µg/mL (≈ 0.569 µM), more than 128 µg/mL, 4 µg/mL (≈ 9.1 µM) and more than 36.4 µM.
Taken in the same sequence, the figures for `COc1ccc2nccc(-n3cc4c(n3)CCC(NC(=O)C(=O)c3cc5ccccc5[nH]3)C4)c2n1` (centres unmarked) [Example 9, 2-(1H-Indol-2-yl)-N-[2-(6-methoxy-[1,5]naphthyridin-4-yl)-4,5,6,7-tetrahydro-2H-indazol-5-yl]-2-oxo-acetamide] were 0.25 µg/mL (≈ 0.536 µM), more than 128 µg/mL, 4 µg/mL (≈ 8.57 µM) and more than 34.3 µM.
Take `COc1ccc2nccc(-n3cc4c(n3)CCC(NC(=O)/C=C/c3cc(F)cc(F)c3)C4)c2n1` (centres unmarked) [Example 11, 3-(3,5-Difluoro-phenyl)-N-[2-(6-methoxy-[1,5]naphthyridin-4-yl)-4,5,6,7-tetrahydro-2H-indazol-5-yl]-acrylamide]: the figures for the MIC (in the assay on S. aureus ATCC13709; in assay [1]; in the assay with S. pneumoniae ATCC49619) were less than 0.125 µg/mL, more than 128 µg/mL and 16 µg/mL (≈ 34.7 µM), respectively. Besides, the IC50 on E. coli DNA gyrase was 4.33 µM.
In the same order, the values of `COc1ccc2nccc(-n3cc4c(n3)CCC(NC(=O)/C=C/c3cccc(Cl)c3)C4)c2n1` (centres unmarked) [Example 12, 3-(3-Chloro-phenyl)-N-[2-(6-methoxy-[1,5]naphthyridin-4-yl)-4,5,6,7-tetrahydro-2H-indazol-5-yl]-acrylamide] are 0.25 µg/mL (≈ 0.544 µM), more than 128 µg/mL, 8 µg/mL (≈ 17.4 µM) and 4.35 µM.
In the same order, the values of `COc1ccc2nccc(-n3cc4c(n3)CCC(NC(=O)/C=C/c3ccc(F)cc3)C4)c2n1` (centres unmarked) [Example 13, 3-(4-Fluoro-phenyl)-N-[2-(6-methoxy-[1,5]naphthyridin-4-yl)-4,5,6,7-tetrahydro-2H-indazol-5-yl]-acrylamide] are 0.5 µg/mL (≈ 1.13 µM), more than 128 µg/mL, 8 µg/mL (≈ 18 µM) and more than 36.1 µM.
Taken in the same sequence, the figures for `COc1ccc2nccc(-n3cc4c(n3)CCC(NC(=O)/C=C/c3cccc([N+](=O)[O-])c3)C4)c2n1` (centres unmarked) [Example 14, N-[2-(6-Methoxy-[1,5]naphthyridin-4-yl)-4,5,6,7-tetrahydro-2H-indazol-5-yl]-3-(3-nitro-phenyl)-acrylamide] were 1 µg/mL (≈ 2.13 µM), more than 128 µg/mL, 16 µg/mL (≈ 34 µM) and 2.13 µM.
As to `COc1ccc2nccc(-n3cc4c(n3)CCN(C(=O)c3ccc5c(c3)NC(=O)CS5)CC4)c2n1` [Example 15, 6-[2-(6-Methoxy-[1,5]naphthyridin-4-yl)-4,5,7,8-tetrahydro-2H-1,2,6-triaza-azulene-6-carbonyl]-4H-benzo[1,4]thiazin-3-one], the minimal inhibitory concentration (MIC) in the assay on S. aureus ATCC13709 is 1 µg/mL (≈ 2.06 µM); in assay [1], more than 128 µg/mL; in the assay on S. pneumoniae ATCC49619, 16 µg/mL (≈ 32.9 µM). Moreover, the IC50 on E. coli DNA gyrase is more than 65.8 µM.
In the same order, the values of `COc1ccc2nccc(-n3ncc4c3CCC(NC(=O)c3cc5c(cc3F)SCC(=O)N5)C4)c2c1` (centres unmarked) [Example 19, 7-Fluoro-3-oxo-3,4-dihydro-2H-benzo[1,4]thiazine-6-carboxylic acid [1-(6-methoxy-quinolin-4-yl)-4,5,6,7-tetrahydro-1H-indazol-5-yl]-amide] are 0.5 µg/mL (≈ 0.993 µM), more than 128 µg/mL, 8 µg/mL (≈ 15.9 µM) and more than 63.5 µM.
In the same order, the values of `COc1ccc2nccc(-n3cc4c(n3)CCC(NC(=O)c3cc5c(cc3Cl)SCC(=O)N5)C4)c2c1` (centres unmarked) [Example 20, 7-Chloro-3-oxo-3,4-dihydro-2H-benzo[1,4]thiazine-6-carboxylic acid [2-(6-methoxy-quinolin-4-yl)-4,5,6,7-tetrahydro-2H-indazol-5-yl]-amide] are less than 0.125 µg/mL, 2 µg/mL (≈ 3.85 µM), 2 µg/mL (≈ 3.85 µM) and 0.962 µM.
Consider `COc1ccc2nccc(-n3cc4c(n3)CCC(NC(=O)c3cc5ccccc5[nH]3)C4)c2c1` (centres unmarked) [Example 21, 1H-Indole-2-carboxylic acid [2-(6-methoxy-quinolin-4-yl)-4,5,6,7-tetrahydro-2H-indazol-5-yl]-amide], for which the minimum inhibitory concentration (MIC) with S. aureus ATCC13709 is 1 µg/mL (≈ 2.29 µM); in assay [1], more than 128 µg/mL; with S. pneumoniae ATCC49619, 8 µg/mL (≈ 18.3 µM). On E. coli DNA gyrase, the IC50 was more than 36.6 µM.
Taken in the same sequence, the figures for `COc1ccc2nccc(-n3cc4c(n3)CCC(NC(=O)c3cc5c(F)cc(F)cc5[nH]3)C4)c2c1` (centres unmarked) [Example 22, 4,6-Difluoro-1H-indole-2-carboxylic acid [2-(6-methoxy-quinolin-4-yl)-4,5,6,7-tetrahydro-2H-indazol-5-yl]-amide] were 0.5 µg/mL (≈ 1.06 µM), more than 128 µg/mL, 8 µg/mL (≈ 16.9 µM) and 1.06 µM.
In the same order, the values of `COc1ccc2nccc(-n3cc4c(n3)CCC(NC(=O)c3cc5ccccc5o3)C4)c2c1` (centres unmarked) [Example 25, Benzofuran-2-carboxylic acid [2-(6-methoxy-quinolin-4-yl)-4,5,6,7-tetrahydro-2H-indazol-5-yl]-amide] are 1 µg/mL (≈ 2.28 µM), more than 128 µg/mL, 8 µg/mL (≈ 18.2 µM) and more than 36.5 µM.
Take `COc1ccc2nccc(-n3cc4c(n3)CCC(NC(=O)C(=O)c3cc5ccccc5[nH]3)C4)c2c1` (centres unmarked) [Example 26, 2-(1H-Indol-2-yl)-N-[2-(6-methoxy-quinolin-4-yl)-4,5,6,7-tetrahydro-2H-indazol-5-yl]-2-oxo-acetamide]: the values for the MIC (with S. aureus ATCC13709; in assay [1]; in the assay with S. pneumoniae ATCC49619) were 0.25 µg/mL (≈ 0.537 µM), more than 128 µg/mL and 2 µg/mL (≈ 4.3 µM), respectively. The IC50 at E. coli DNA gyrase is more than 34.4 µM.
In the same order, the values of `COc1ccc2nccc(-n3cc4c(n3)CC(NC(=O)c3cc5c(cc3F)SCC(=O)N5)CC4)c2c1` (centres unmarked) [Example 28, 7-Fluoro-3-oxo-3,4-dihydro-2H-benzo[1,4]thiazine-6-carboxylic acid [2-(6-methoxy-quinolin-4-yl)-4,5,6,7-tetrahydro-2H-indazol-6-yl]-amide] are 0.25 µg/mL (≈ 0.496 µM), 16 µg/mL (≈ 31.8 µM), 4 µg/mL (≈ 7.94 µM) and 3.97 µM.
Consider `O=C1CSc2cc(F)c(C(=O)NC3CCc4nn(-c5cccc6ccccc56)cc4C3)cc2N1` (centres unmarked) [Example 33, 7-Fluoro-3-oxo-3,4-dihydro-2H-benzo[1,4]thiazine-6-carboxylic acid (2-naphthalen-1-yl-4,5,6,7-tetrahydro-2H-indazol-5-yl)-amide], for which the values for the MIC (in the assay on S. aureus ATCC13709; in assay [1]; with S. pneumoniae ATCC49619) were 1 µg/mL (≈ 2.12 µM), more than 128 µg/mL and 8 µg/mL (≈ 16.9 µM), respectively. Further, the 50% inhibitory concentration (IC50) at E. coli DNA gyrase is 4.23 µM.

(Values after US8242275B2, “Bicyclic pyrazole compounds as antibacterial agents” (Janssen Pharmaceutica NV, priority 2005, dated 2012).)
